Laboratory results from publication PMC4727820 (Scientia Pharmaceutica, 2014).
Values after ≈ are worked out from the molar mass of the structure shown. Read-outs that look alike come from different tables or passages of the source.

Tests used:
[1] = cited from earlier work
[2] = In vitro skin permeation study, Franz-type diffusion cell; assay type: in vitro ADME; conditions: male, Wistar, rat, read-out: Kp x10^6 (permeability coefficient) (converted)
Experimental: The in vitro skin permeation study was performed by using skin from the whole dorsal area of a male Wistar rat. […] For each salt and the parent drug, the cumulative amounts permeated through the skin were plotted against time. A steady-state flux (Jss) was obtained by dividing the slope of that graph by the surface area of the diffusion cell (4.906 cm^2).
All the reagents and solvents required for the syntheses were purified by general laboratory techniques before use. The purity of the compounds and completion of the reactions were monitored by thin layer chromatography (TLC) on silica gel plates (60 F254; Merck), visualized with ultraviolet light or iodine vapors. […] Melting points were determined using a Veego make silicon oil bath-type melting point apparatus and are uncorrected. The IR spectra were recorded using the KBr disc method in cm^−1 on a Bruker FTIR, Model 8300. The PMR spectra were recorded in CDCl3 on a Bruker 400 MHz spectrometer (chemical shifts in δ ppm, coupling constant J in Hz). λmax was determined on the Shimadzu 1800 UV spectrophotometer. The mass of the compounds was determined by LC-MS using electron impact as the source of ionization. DSC was performed on the Shimadzu DSC-60 model with the thermal analyser TA 60WS. The scanning electron microscope (SEM) model ESEM-EDAX XL-30, Philips (Netherlands) was used for the study of surface morphology. In vitro skin permeation studies were conducted using a Franz-type diffusion cell using skin from the whole dorsal area of a male Wistar rat (200 ± 10 g). Animal experiments were performed with the approval of the institutional animal ethical committee (MSU/PHARM/IAEC/2011/14) in accordance with Laboratory Animal Welfare guidelines.
In vitro skin permeation studies were performed by using skin from the whole dorsal area of a male Wistar rat in a Franz-type diffusion cell. Skin specimens were rehydrated before being mounted in the diffusion cell. The receptor medium (0.05 M phosphate buffer saline solution of pH 7.4) was stirred and kept at 37±1°C throughout the study.
The permeability coefficients (Kp) for the steady-state delivery were obtained by dividing the steady-state flux (Jss) by the solubilities of the compounds in the corresponding vehicle. The receiver medium (0.05 M phosphate buffer saline solution of pH 7.4) was stirred and kept at 37±1°C throughout the study. The compounds were applied as solutions in the phosphate buffer of pH 5.0 or 7.4. At specified time intervals, aliquots (0.5 ml) were withdrawn from the receiver compartment and replaced with fresh buffer. The drug concentrations were analyzed by HPLC.

[3] = Solubility in phosphate buffer (0.16 M); assay type: physicochemical; conditions: aqueous buffer, thermodynamic from solid
Experimental: Excess amounts of each salt were added to the phosphate buffer (0.5 ml) individually. The mixtures were stirred and centrifuged at 6000 rpm for 6 min. The concentrations of each of the salts in their saturated solutions were analyzed by HPLC. The pH of the solutions was held constant throughout the experiment.

SMILES	half-life [1]	Papp ([2]; pH 5)	Papp ([2]; pH 7.4)	solubility ([3]; pH 5.0, room temperature)	solubility ([3]; pH 7.4, room temperature)
O=C(O)Cc1ccc(-c2ccccc2)cc1 [compound 1, reference compound]	> 10 h	0.208 ×10⁻⁶ cm/s	0.00833 ×10⁻⁶ cm/s	0.57 ± 0.14 mM (≈ 121 µg/mL)	54.08 ± 0.14 mM (≈ 11500 µg/mL)
NCCO.O=C(O)Cc1ccc(-c2ccccc2)cc1 [1b]		0.0222 ×10⁻⁶ cm/s	0.178 ×10⁻⁶ cm/s	28.96 ± 0.28 mM	24.1 ± 0.34 mM
O=C([O-])Cc1ccc(-c2ccccc2)cc1.[Na+] [1a]		0.0333 ×10⁻⁶ cm/s	0.0667 ×10⁻⁶ cm/s	14.2 ± 0.31 mM	17.1 ± 0.21 mM
